{"source": "patent US20110059909A1", "about": "“METHODS FOR TREATING INFLAMMATORY DISORDERS” (priority 2004, published 2011)", "key": {"iNOS": {"tested_on": "iNOS", "test": "iNOS mRNA (RT-PCR) and protein (immunoblot) in LPS/IFNγ-stimulated primary astrocytes", "type": "cell-based, rat", "settings": "for LPS/IFNγ-induced iNOS mRNA and protein levels: primary astrocytes, LPS/IFNγ (1 μg/ml; 10 U/ml), mRNA 6 h, protein 24 h", "experimental": "(§1) Primary astrocyte-enriched cultures were prepared from the whole cortex of one day old Sprague-Dawley rats as described earlier (Pahan et al., 1998b). Briefly, the cortex was rapidly dissected in ice-cold calcium/magnesium free Hanks Balanced Salt Solution (HBSS) (Gibco, Grand Island, N.Y.) at pH 7.4 as described previously (Won et al., 2001). The tissue was then minced, incubated in HBSS containing trypsin (2 mg/ml) for 20 min and washed twice in plating medium containing 10% FBS and 10 μg/ml gentamicin, and then disrupted by triturating through a Pasteur pipette following which cells were seeded in 75-cm^2 culture flasks (Falcon, Franklin, N.J.). After incubation at 37° C. in 5% CO2 for 1 day, the medium was completely changed to the culture medium (DMEM containing 5% FBS and 10 μg/ml gentamicin). The cultures received half exchanges with fresh medium twice a week. After 14-15 days the cells were shaken for at least 24 h on an orbital shaker to remove the microglia and then seeded on multi-well tissue culture dishes. The cells were incubated with serum-free DMEM for 24 h prior to the incubation with drugs.\n(§2) For iNOS protein, the cells were washed with cold Tris buffered saline (TBS; 20 mM Trizma base, and 137 mM NaCl, pH 7.5), lysed in 1×SDS sample loading buffer (62.5 mM Trizma base, 2% w/v SDS, 10% glycerol), following sonication and centrifugation at 15,000×g for 5 min, the supernatant was used for the iNOS western immunoblot assay. The protein concentration of samples was determined with the detergent compatible protein assay reagent (Bio-Rad Laboratories, CA) using bovine serum albumin (BSA) as the standard. Sample was boiled for 3 min with 0.1 volumes of 10% β-mercaptoethanol and 0.5% bromophenol blue mix. Fifty μg of total cellular protein was resolved by electrophoresis on 8 or 12% polyacrylamide gels, electro-transferred to polyvinylidene difluoride (PVDF) filter and blocked with Tween 20 containing Tris-buffered saline (TBST; 10 mM Trizma base-pH 7.4, 1% Tween 20, and 150 mM NaCl) with 5% skim milk. After incubation with antiserum against iNOS (BD PharMingen, CA), rat GalT-2 (Abjent Inc., CA), H-Ras (Upstate Biotechnology, CA), GFAP (Santa Cruz Biotech, CA), or phospho-specific ERK1/2 (Cell signaling Tech Inc., MA), or pIκ-B (Signal Transduction), in PVDF buffer for 2 h at room temperature, the filters were washed 3 times with TBST buffer and then incubated with horseradish peroxidase conjugated anti-rabbit or mouse IgG for 1 h. The membranes were detected by autoradiography using ECL-plus (Amersham Pharmacia Biotech) after washing with TBST buffer.\n5 μg total RNA was treated with 2 U DNAse I (bovine pancreas, Sigma) for 15 min at room temperature in 18 μl volume containing 1×PCR buffer and 2 mM MgCl2. It was then inactivated by incubation with 2 μl of 25 mM EDTA at 65° C. for 15 min. 2 μl of random primers were added and annealed to the RNA according to the manufacturer's protocol. cDNA was synthesized in a 50 μl reaction containing 5 μg of total RNA and 50-100 U reverse transcriptase by incubating the tubes at 42° C. for 60 min. PCR amplification was conducted in 25 μl of reaction mixture with 1.0 μl of cDNA, […] of each primer and under the manufacturer's Taq polymerase conditions (Takara, Takara Shuzo Co. Ltd, Japan). The sequence of primers used for PCR amplification are as follows; iNOS, (Forward-5′ […] 3′, SEQ ID NO:3; Reverse-5′ […] 3′, SEQ ID NO:4), GalT-2 (Forward-5′ tggtacaagctagaggc 3′, SEQ ID NO:5; Reverse-5′ gcatggcacattgaa C-3′, SEQ ID NO:6), GAPDH (Forward-5′ […] 3′, SEQ ID NO:7; Reverse-5′ cttcacgaagttgtcattgagggca3′, SEQ ID NO:8), TNFα (Forward-5′ […] g-3′, SEQ ID NO:9; Reverse-5′[…]-3′, SEQ ID NO:10) and IL-1β (Forward-5′[…]-3′, SEQ ID NO:11; reverse-5′[…]-3′, SEQ ID NO:12)."}, "GFAP": {"tested_on": "GFAP", "test": "GFAP mRNA (real time PCR) and protein (immunoblot) in TNFα-stimulated primary astrocytes", "type": "cell-based, rat", "settings": "for TNFα-induced GFAP mRNA and protein expression: TNFα 1 ng/ml, mRNA 8 h, protein 18 h", "experimental": "as §2"}, "rat primary astrocytes [1]": {"tested_on": "rat primary astrocytes", "test": "BrdU incorporation assay, proliferation of primary astrocytes", "type": "cell-based", "settings": "for TNFα-induced astrocyte proliferation: pretreated 0.5 h (AS: 48 h after transfection), TNFα 1 ng/ml 18 h", "experimental": "as §1\nProliferation of primary astrocytes was assayed by using the Cell proliferation ELISA, BrdU colorimetric assay kit (Roche, Germany) according to manufacturer's protocol. Briefly, cells were seeded in 96 well plates in quadruplicate and following overnight serum starvation were stimulated with mitogenic stimulants. 2 h before termination of proliferation assay, BrdU (10 μM) was added to each well following which cells were fixed and levels of incorporated BrdU were assayed by using a conjugated anti-BrdU enzyme. Colorimetric analysis was done by measuring absorbance at 370 nm using a spectramax MAX 190 (Molecular devices) multi-well plate reading spectrophotometer."}, "rat primary astrocytes [2]": {"tested_on": "rat primary astrocytes", "test": "Assay for NO production (nitrite, Griess reagent) in LPS/IFNγ-stimulated primary astrocytes", "type": "cell-based", "settings": "for LPS/IFNγ-induced NO production: primary astrocytes, LPS/IFNγ (1 μg/ml; 10 U/ml), NO at 24 h", "experimental": "as §1\nCells were cultured in 12-well plastic tissue culture plates. Following appropriate treatment, production of NO was determined by an assay of the culture supernatant for nitrite (Green et al., 1982). Briefly, 100 μl of culture supernatant was allowed to react with 100 μl of Griess reagent. The optical density of the assay samples was measured spectrophotometrically at 570 nm. Nitrite concentrations were calculated from a standard curve derived from the reaction of NaNO2 in fresh media."}}}
{"compound": "AS GalT-2 oligonucleotides: 20-mer antisense oligonucleotide 5′-CGCTTGAGCGCAGACATCTT-3′, SEQ ID NO:1, against rat lactosylceramide synthase (GalT-2) (antisense CGCTTGAGCGCAGACATCTT; chemistry not given here)", "values": [{"measurement": "LPS/IFNγ-induced iNOS mRNA and protein levels", "setting": "iNOS", "result": "decreased"}, {"measurement": "TNFα-induced GFAP mRNA and protein expression", "setting": "GFAP", "result": "diminished"}, {"measurement": "TNFα-induced astrocyte proliferation", "setting": "rat primary astrocytes [1]; BrdU incorporation", "result": "decreased"}, {"measurement": "LPS/IFNγ-induced NO production", "setting": "rat primary astrocytes [2]", "result": "decreased"}]}
{"compound": "CCCCCCCCCC(=O)NC(CN1CCOCC1)C(O)c1ccccc1.Cl", "note": "[PDMP, D-threo-1-Phenyl-2-decanoylamino-3-morpholino-1-propanol.HCl]", "values": [{"measurement": "LPS/IFNγ-induced iNOS mRNA and protein levels", "setting": "iNOS", "result": "dose dependent decrease"}, {"measurement": "TNFα-induced GFAP mRNA and protein expression", "setting": "GFAP", "result": "inhibited"}, {"measurement": "TNFα-induced astrocyte proliferation", "setting": "rat primary astrocytes [1]; BrdU incorporation", "result": "dose dependently inhibited"}, {"measurement": "LPS/IFNγ-induced NO production", "setting": "rat primary astrocytes [2]", "result": "dose dependent decrease"}]}
{"compound": "Lactosylceramide [LacCer]", "values": [{"measurement": "Reversal of NAC- and PDTC-mediated inhibition of LPS/IFNγ-stimulated iNOS gene expression", "setting": "iNOS; NAC 10 mM or PDTC 100 μM, exogenous LacCer", "result": "not reversed"}, {"measurement": "Reversal of PDMP-mediated inhibition of iNOS gene expression", "setting": "iNOS; PDMP 50 μM plus LacCer 5 and 10 μM, 0.5 h before LPS/IFNγ", "result": "blunted"}, {"measurement": "Effect on PD98059-mediated inhibition of iNOS gene expression", "setting": "iNOS; exogenous LacCer, LPS/IFNγ", "result": "no effect"}, {"measurement": "Reversal of PDMP-mediated inhibition of TNFα-induced GFAP expression", "setting": "GFAP; PDMP 25 μM plus LacCer 5 μM", "result": "reversed"}, {"measurement": "Reversal of AS-mediated inhibition of GFAP expression", "setting": "GFAP; exogenous LacCer", "result": "blunted"}, {"measurement": "Reversal of LY-mediated inhibition of TNFα-mediated GFAP expression", "setting": "GFAP; exogenous LacCer", "result": "effectively bypassed"}, {"measurement": "Effect on PD98059-mediated inhibition of GFAP expression", "setting": "GFAP; exogenous LacCer, TNFα", "result": "no effect"}, {"measurement": "Reversal of DMS-mediated inhibition of TNFα-induced GFAP expression", "setting": "GFAP; exogenous lipid", "result": "reversed"}, {"measurement": "Reversal of LY-mediated inhibition of TNFα-induced proliferation", "setting": "rat primary astrocytes [1]; LY 30 μM plus exogenous lipid", "result": "effectively blunted"}, {"measurement": "Reversal of PDMP-mediated inhibition of TNFα-induced proliferation", "setting": "rat primary astrocytes [1]; PDMP 25 μM plus exogenous lipid", "result": "able to bypass"}, {"measurement": "Reversal of GalT-2 AS-mediated inhibition of TNFα-induced proliferation", "setting": "rat primary astrocytes [1]; exogenous LacCer", "result": "bypassed the inhibition"}, {"measurement": "Reversal of DMS-mediated inhibition of TNFα-induced proliferation", "setting": "rat primary astrocytes [1]; exogenous lipid", "result": "reversed"}, {"measurement": "Reversal of PD98059-mediated inhibition of TNFα-induced proliferation", "setting": "rat primary astrocytes [1]; exogenous lipid", "result": "could not be reversed"}, {"measurement": "Proliferation of astrocytes induced by the substance itself", "setting": "rat primary astrocytes [1]; increasing doses (1, 5 and 10 μM for GSL), 18 h, BrdU incorporation", "result": "induced proliferation"}, {"measurement": "Reversal of PDMP-mediated inhibition of LPS/IFNγ-induced NO production", "setting": "rat primary astrocytes [2]; PDMP 50 μM plus exogenous glycosphingolipid 5 and 10 μM, 0.5 h before LPS/IFNγ", "result": "blunted"}, {"measurement": "Reversal of GalT-2 AS-mediated inhibition of NO production and iNOS levels", "setting": "rat primary astrocytes [2]; exogenous LacCer, LPS/IFNγ", "result": "reversed the inhibition"}]}
